pIC50: −log10 of the molar value.
Target: ALK2 (Homo sapiens (Human), UniProt Q04771)
Assay: ALK2 inhibition, LanthaScreen Eu Kinase Binding Assay (ThermoFisher Scientific / Life Technologies)
Conditions: read-out: Measured Ki (IC50) Value for Compounds: IC50
Method: Biochemical assays to measure the inhibitory effects of the compounds were performed by ThermoFisher Scientific (Life Technologies). ALK2 inhibition was tested using LanthaScreen™ Eu Kinase Binding Assay screening protocol.

Chain of ALK2 (Q04771 21-509): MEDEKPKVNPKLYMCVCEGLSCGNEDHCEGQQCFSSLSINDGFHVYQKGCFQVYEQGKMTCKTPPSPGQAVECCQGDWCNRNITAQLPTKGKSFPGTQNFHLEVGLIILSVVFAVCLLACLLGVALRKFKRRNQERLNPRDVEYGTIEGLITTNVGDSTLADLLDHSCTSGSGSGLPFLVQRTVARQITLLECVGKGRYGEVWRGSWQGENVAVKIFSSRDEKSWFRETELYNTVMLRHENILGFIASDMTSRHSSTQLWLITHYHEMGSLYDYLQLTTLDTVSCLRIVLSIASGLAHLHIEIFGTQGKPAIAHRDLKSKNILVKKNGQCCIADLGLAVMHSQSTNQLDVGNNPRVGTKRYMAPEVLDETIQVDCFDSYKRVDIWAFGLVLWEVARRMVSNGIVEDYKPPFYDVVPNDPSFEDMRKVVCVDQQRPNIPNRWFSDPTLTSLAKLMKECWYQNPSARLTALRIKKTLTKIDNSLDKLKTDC

Structure (SMILES)	pIC50
COc1cc(-n2cnc(Nc3nc4c(c(N5CCC[C@H]5CO)n3)COCC4)c2)cc(OC)c1OC [Compound 343b, (S)-(1-(2-((1-(3,4,5-trimethoxyphenyl)-1H-imidazol-4-yl)amino)-7,8-dihydro-5H-pyrano[4,3-d]pyrimidin-4-yl)pyrrolidin-2-yl)methanol]	> 7.00
COc1cc(-n2cnc(Nc3nc(N4CCC[C@H]4C(N)=O)nc4ncccc34)c2)cc(OC)c1OC [Compound 170a, (S)-1-(4-((1-(3,4,5-trimethoxyphenyl)-1H-imidazol-4-yl)amino)pyrido[2,3-d]pyrimidin-2-yl)pyrrolidine-2-carboxamide]	> 7.00
NC(=O)c1ccc(-n2cnc(Nc3nc(N4CCC[C@H]4CO)nn4cccc34)c2)cc1 [Compound 93c, (S)-4-(4-(2-(2-(hydroxymethyl)pyrrolidin-1-yl)pyrrolo[1,2-f][1,2,4]triazin-4-ylamino)-1H-imidazol-1-yl)benzamide]	> 7.00
Cn1cnc(-n2cnc(Nc3nc(N4CCC[C@H]4CO)nn4cccc34)c2)c1 [Compound 82a, (S)-(1-(4-((1′-methyl-1′H-[1,4′-biimidazol]-4-yl)amino)pyrrolo[2,1-f][1,2,4]triazin-2-yl)pyrrolidin-2-yl)methanol]	> 7.00
OC[C@@H]1CCCN1c1nc(Nc2cn(-c3ccccn3)cn2)c2cccn2n1 [Compound 66c, (S)-(1-(4-((1-(pyridin-2-yl)-1H-imidazol-4-yl)amino)pyrrolo[2,1-f][1,2,4]triazin-2-yl)pyrrolidin-2-yl)methanol]	> 7.00
COc1cc(Cl)cc(-n2cnc(Nc3nc(N4CCC[C@H]4CO)c4cccn4n3)c2)c1 [Compound 249d, (S)-(1-(2-((1-(3-chloro-5-methoxyphenyl)-1H-imidazol-4-yl)amino)pyrrolo[2,1-f][1,2,4]triazin-4-yl)pyrrolidin-2-yl)methanol]	6.00 to 7.00
COc1cc(-n2cnc(Nc3nc4c(c(N5CCC[C@H]5CO)n3)CN(C(=O)OC(C)(C)C)CC4)c2)cc(OC)c1OC [Compound 181c, (S)-tert-butyl 4-(2-(hydroxymethyl)pyrrolidin-1-yl)-2-((1-(3,4,5-trimethoxyphenyl)-1H-imidazol-4-yl)amino)-7,8-dihydropyrido[4,3-d]pyrimidine-6(5H)-carboxylate]	> 7.00
OC[C@@H]1CCCN1c1nc(Nc2cn(-c3ccc(F)cc3)cn2)c2sccc2n1 [Compound 58b, (S)-(1-(4-((1-(4-fluorophenyl)-1H-imidazol-4-yl)amino)thieno[3,2-d]pyrimidin-2-yl)pyrrolidin-2-yl)methanol]	> 7.00
Cn1cnc(Nc2nc(N3CCCC3c3ccccc3)nc3ccoc23)c1 (stereo not shown) [Compound 13a, N-(1-methyl-1H-imidazol-4-yl)-2-(2-phenylpyrrolidin-1-yl)furo[3,2-d]pyrimidin-4-amine]	> 7.00
COc1cc(-n2cnc(Nc3nc(N4CCC[C@H]4CO)nn4c(C5=CCN(C(=O)OC(C)(C)C)CC5)ccc34)c2)cc(OC)c1OC [Compound 98a, (S)-tert-butyl 4-(2-(2-(hydroxymethyl)pyrrolidin-1-yl)-4-(1-(3,4,5-trimethoxyphenyl)-1H-imidazol-4-ylamino)pyrrolo[1,2-f][1,2,4]triazin-7-yl)-5,6-dihydropyridine-1(2H)-carboxylate]	> 7.00
OC[C@@H]1CCCN1c1nc(Nc2cn(-c3ccccc3)cn2)c2ccsc2n1 [Compound 31c, (S)-(1-(4-((1-phenyl-1H-imidazol-4-yl)amino)thieno[2,3-d]pyrimidin-2-yl)pyrrolidin-2-yl)methanol]	> 7.00
COc1cc(-n2cnc(Nc3nc(N4CCC[C@H]4CO)nc4c3CN(Cc3ccccc3)CC4)c2)cc(OC)c1OC [Compound 149c, (S)-(1-(6-benzyl-4-((1-(3,4,5-trimethoxyphenyl)-1H-imidazol-4-yl)amino)-5,6,7,8-tetrahydropyrido[4,3-d]pyrimidin-2-yl)pyrrolidin-2-yl)methanol]	6.00 to 7.00
OC[C@@H]1CCCN1c1nc(Nc2cn(-c3ccc(F)c(F)c3)cn2)c2cccn2n1 [Compound 128c, (S)-(1-(4-((1-(3,4-difluorophenyl)-1H-imidazol-4-yl)amino)pyrrolo[2,1-f][1,2,4]triazin-2-yl)pyrrolidin-2-yl)methanol]	> 7.00
COc1cc(-n2cnc(Nc3nc(N4CCC[C@H]4CO)nc4ccoc34)c2)cc(OC)c1OC [Compound 103b, (S)-(1-(4-((1-(3,4,5-trimethoxyphenyl)-1H-imidazol-4-yl)amino)furo[3,2-d]pyrimidin-2-yl)pyrrolidin-2-yl)methanol]	> 7.00

Results, then the molecule that gave them:

pIC50	Structure (SMILES)
6.00 to 7.00	OC[C@@H]1CCCN1c1nc(Nc2cn(-c3ccc4c(c3)OCCO4)cn2)c2cccn2n1 [Compound 423e, (S)-(1-(4-((1-(2,3-dihydrobenzo[b][1,4]dioxin-6-yl)-1H-imidazol-4-yl)amino)pyrrolo[2,1-f][1,2,4]triazin-2-yl)pyrrolidin-2-yl)methanol]
< 6.00	COc1cc(-n2cnc(Nc3nc(N4CCC[C@H]4C(N)=O)nc4[nH]cc(C#N)c34)c2)cc(OC)c1OC [Compound 395d, (S)-1-(5-cyano-4-((1-(3,4,5-trimethoxyphenyl)-1H-imidazol-4-yl)amino)-7H-pyrrolo[2,3-d]pyrimidin-2-yl)pyrrolidine-2-carboxamide]
> 7.00	OC[C@@H]1CCCN1c1nc(Nc2cn(-c3ccnc4ccccc34)cn2)c2cccn2n1 [Compound 448e, (S)-(1-(4-((1-(quinolin-4-yl)-1H-imidazol-4-yl)amino)pyrrolo[2,1-f][1,2,4]triazin-2-yl)pyrrolidin-2-yl)methanol]
> 7.00	COc1cc(-n2cnc(Nc3nc4c(c(N5CCC[C@@H]5CO)n3)CNC4)c2)cc(OC)c1OC [Compound 366c, (R)-(1-(2-(1-(3,4,5-trimethoxyphenyl)-1H-imidazol-4-ylamino)-6,7-dihydro-5H-pyrrolo[3,4-d]pyrimidin-4-yl)pyrrolidin-2-yl)methanol]
> 7.00	COc1cc(-n2cnc(Nc3nc(N4CCC[C@H]4CO)nc4c3ccn4CC3CCCCC3)c2)cc(OC)c1OC [Compound 462c, (S)-(1-(7-(cyclohexylmethyl)-4-((1-(3,4,5-trimethoxyphenyl)-1H-imidazol-4-yl)amino)-7H-pyrrolo[2,3-d]pyrimidin-2-yl)pyrrolidin-2-yl)methanol]
> 7.00	COc1cc(-n2cnc(Nc3nc(N4CCC[C@H]4CO)nc4cc(N5CCNCC5)ccc34)c2)cc(OC)c1OC [Compound 376b, (S)-(1-(7-(piperazin-1-yl)-4-((1-(3,4,5-trimethoxyphenyl)-1H-imidazol-4-yl)amino)quinazolin-2-yl)pyrrolidin-2-yl)methanol]
> 7.00	COc1cc(-n2cnc(Nc3nc(N4CCC[C@@H]4CO)nn4c(CN5CCCCC5)ccc34)c2)cc(OC)c1OC [Compound 348a, (R)-(1-(7-(piperidin-1-ylmethyl)-4-((1-(3,4,5-trimethoxyphenyl)-1H-imidazol-4-yl)amino)pyrrolo[2,1-f][1,2,4]triazin-2-yl)pyrrolidin-2-yl)methanol]
> 7.00	COc1cc(-n2cnc(Nc3nc(N4CCC[C@H]4C(N)=O)nc4sc(CN5CCC(O)CC5)cc34)c2)cc(OC)c1OC [Compound 404b, (S)-1-(6-((4-hydroxypiperidin-1-yl)methyl)-4-((1-(3,4,5-trimethoxyphenyl)-1H-imidazol-4-yl)amino)thieno[2,3-d]pyrimidin-2-yl)pyrrolidine-2-carboxamide]

— patent US11661426B2, “Imidazole-containing inhibitors of ALK2 kinase” (BioCryst Pharmaceuticals, Inc., priority 2017, dated 2023)
